Source: patent US20250236608A1, “EGFR INHIBITORS” (Blueprint Medicines Corporation, priority 2022, published 2025)

Legend:
EGFR L858R = EGFR L858R (Homo sapiens (Human), UniProt P00533, L858R); assay: Biochemical EGFR inhibition assay, EGFR L858R; conditions: Caliper mobility shift; 1.0 mM ATP or ATP Km; read-out: Enz EGFR_L858R IC50
EGFR (d746-750) = EGFR (d746-750) (Homo sapiens (Human), UniProt P00533, DEL746-750); assay: Biochemical EGFR inhibition assay, EGFR (d746-750); conditions: Caliper mobility shift; 1.0 mM ATP or ATP Km; read-out: Enz EGFR_Exon19-del746-750 IC50
[1] = molecular target: pEGFR (Tyr1068) in PC-9 cells (Ex19Del) (Homo sapiens (Human), UniProt P00533, DEL746-750); assay: PC-9 pEGFR AlphaLISA assay; format: cell-based; conditions: 4 hours incubation, p-EGFR (Tyr1068) AlphaLISA, read-out: Ext pEGFR_PC-9 Ex19Del IC50
Method in brief: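 Readout: AlphaLISA SureFire Ultra signal in cell lysates, with acceptor beads for 1.5-2 h and donor beads overnight at room temperature in the dark. Beforehand, unstimulated cells in 10% FBS medium received compounds (10 points, 4-fold steps) for 4 h at 37° C. IC50 came from percent inhibition curves.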

Chain of EGFR L858R (P00533 25-1210 L858R): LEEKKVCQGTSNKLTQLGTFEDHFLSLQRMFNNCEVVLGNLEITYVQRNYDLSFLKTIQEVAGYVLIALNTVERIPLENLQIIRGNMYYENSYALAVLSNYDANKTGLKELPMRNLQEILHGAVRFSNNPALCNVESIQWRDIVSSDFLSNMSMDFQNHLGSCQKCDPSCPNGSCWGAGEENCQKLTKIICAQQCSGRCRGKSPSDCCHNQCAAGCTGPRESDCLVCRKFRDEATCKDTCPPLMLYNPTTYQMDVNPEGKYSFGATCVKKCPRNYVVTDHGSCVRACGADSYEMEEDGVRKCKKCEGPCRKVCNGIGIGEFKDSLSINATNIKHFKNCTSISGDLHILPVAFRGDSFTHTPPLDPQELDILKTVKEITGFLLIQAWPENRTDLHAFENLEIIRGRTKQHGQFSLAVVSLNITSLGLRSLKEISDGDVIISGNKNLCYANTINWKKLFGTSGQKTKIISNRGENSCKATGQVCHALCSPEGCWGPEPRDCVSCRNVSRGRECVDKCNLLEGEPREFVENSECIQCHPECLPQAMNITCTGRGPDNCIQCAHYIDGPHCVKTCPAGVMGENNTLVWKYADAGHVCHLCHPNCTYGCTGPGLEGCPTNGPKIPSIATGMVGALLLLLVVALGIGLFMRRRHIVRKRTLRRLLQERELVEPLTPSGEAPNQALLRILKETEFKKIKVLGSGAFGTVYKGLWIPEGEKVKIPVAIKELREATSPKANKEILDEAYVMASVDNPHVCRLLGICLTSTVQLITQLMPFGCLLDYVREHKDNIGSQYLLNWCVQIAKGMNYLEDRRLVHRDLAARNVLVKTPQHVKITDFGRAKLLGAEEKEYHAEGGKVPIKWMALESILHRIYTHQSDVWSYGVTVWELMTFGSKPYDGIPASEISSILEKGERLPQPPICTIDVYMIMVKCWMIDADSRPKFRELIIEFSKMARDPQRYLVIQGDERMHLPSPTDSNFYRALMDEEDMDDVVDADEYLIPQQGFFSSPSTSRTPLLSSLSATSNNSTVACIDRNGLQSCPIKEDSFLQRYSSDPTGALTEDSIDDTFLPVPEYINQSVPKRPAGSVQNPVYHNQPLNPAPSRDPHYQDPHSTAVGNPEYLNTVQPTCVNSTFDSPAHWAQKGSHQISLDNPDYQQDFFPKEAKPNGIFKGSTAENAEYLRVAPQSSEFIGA
Chain of pEGFR (Tyr1068) in PC-9 cells (Ex19Del) (P00533 other isoform, or with tags, fused parts or gaps del 746-750): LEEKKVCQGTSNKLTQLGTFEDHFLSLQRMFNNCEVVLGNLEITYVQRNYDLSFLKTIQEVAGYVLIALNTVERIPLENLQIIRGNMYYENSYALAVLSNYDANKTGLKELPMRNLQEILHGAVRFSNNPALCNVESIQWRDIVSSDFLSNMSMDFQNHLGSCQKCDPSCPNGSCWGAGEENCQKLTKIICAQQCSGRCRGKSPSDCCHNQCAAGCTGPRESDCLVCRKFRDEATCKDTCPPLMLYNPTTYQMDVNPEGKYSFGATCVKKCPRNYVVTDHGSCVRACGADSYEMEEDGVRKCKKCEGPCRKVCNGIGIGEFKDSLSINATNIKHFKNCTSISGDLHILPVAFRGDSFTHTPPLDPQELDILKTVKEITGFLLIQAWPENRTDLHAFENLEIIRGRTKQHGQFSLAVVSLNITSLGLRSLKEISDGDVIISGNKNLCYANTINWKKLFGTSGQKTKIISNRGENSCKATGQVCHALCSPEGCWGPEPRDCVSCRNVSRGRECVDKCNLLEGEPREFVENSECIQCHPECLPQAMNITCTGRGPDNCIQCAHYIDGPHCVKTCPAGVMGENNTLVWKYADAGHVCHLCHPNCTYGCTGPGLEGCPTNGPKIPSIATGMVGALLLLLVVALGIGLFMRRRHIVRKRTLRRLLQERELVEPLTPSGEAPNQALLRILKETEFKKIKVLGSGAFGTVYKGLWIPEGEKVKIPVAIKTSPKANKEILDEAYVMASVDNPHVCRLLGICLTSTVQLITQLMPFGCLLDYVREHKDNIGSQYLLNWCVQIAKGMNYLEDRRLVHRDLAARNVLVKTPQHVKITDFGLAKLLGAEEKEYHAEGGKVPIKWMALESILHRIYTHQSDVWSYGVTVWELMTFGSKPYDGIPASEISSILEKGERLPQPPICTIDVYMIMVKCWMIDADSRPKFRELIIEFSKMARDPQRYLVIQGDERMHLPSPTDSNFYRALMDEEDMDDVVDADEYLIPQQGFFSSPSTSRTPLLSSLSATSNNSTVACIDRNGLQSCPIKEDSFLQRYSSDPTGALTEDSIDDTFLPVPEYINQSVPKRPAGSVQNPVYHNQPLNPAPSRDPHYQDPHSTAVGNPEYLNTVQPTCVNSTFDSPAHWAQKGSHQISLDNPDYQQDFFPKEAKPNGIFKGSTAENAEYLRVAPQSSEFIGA
Chain of EGFR (d746-750) (P00533 other isoform, or with tags, fused parts or gaps del 1-694/del 746-750 limits assumed): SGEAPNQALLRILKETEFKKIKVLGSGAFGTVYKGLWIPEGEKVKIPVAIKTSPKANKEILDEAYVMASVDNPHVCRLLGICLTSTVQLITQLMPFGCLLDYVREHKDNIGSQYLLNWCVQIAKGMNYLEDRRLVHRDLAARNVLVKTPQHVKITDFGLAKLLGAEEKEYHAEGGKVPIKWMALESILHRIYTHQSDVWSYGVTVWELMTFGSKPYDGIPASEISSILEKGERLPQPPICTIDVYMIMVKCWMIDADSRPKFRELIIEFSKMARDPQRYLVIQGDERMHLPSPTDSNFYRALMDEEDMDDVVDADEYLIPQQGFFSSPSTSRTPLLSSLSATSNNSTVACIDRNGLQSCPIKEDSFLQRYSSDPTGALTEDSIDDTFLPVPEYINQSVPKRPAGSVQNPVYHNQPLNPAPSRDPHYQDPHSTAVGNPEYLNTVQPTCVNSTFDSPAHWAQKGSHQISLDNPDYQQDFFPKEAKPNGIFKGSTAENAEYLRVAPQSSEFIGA

| SMILES | IC50 (EGFR L858R) [nM] | IC50 (EGFR (d746-750)) [nM] | IC50 [1] [nM] |
| --- | --- | --- | --- |
| COc1cc2ncnc(-c3cn(C)nc3-c3ccccc3)c2nc1O[C@H](C)c1nccs1 [Example 32, (R)-2-(1-((7-methoxy-4-(1-methyl-3-phenyl-1H-pyrazol-4-yl)pyrido[3,2-d]pyrimidin-6-yl)oxy)ethyl)thiazole] | 1.1 | 0.8 | 1.2 |
| CCOc1cc2ncnc(-c3cn(C(C)C)nc3-c3ccccc3)c2cc1CO [Example 125, (7-ethoxy-4-(1-isopropyl-3-phenyl-1H-pyrazol-4-yl)quinazolin-6-yl)methanol] | 1.4 | 0.9 | 2.1 |
| COc1cc2ncnc(-c3cn(C)nc3-c3ccccc3)c2cc1O[C@H]1CCOC[C@@H]1F [Example 17, 6-(((3S,4S)-3-fluorotetrahydro-2H-pyran-4-yl)oxy)-7-methoxy-4-(1-methyl-3-phenyl-1H-pyrazol-4-yl)quinazoline] | 1.8 | 1.1 | 2.4 |
| COc1cc2ncnc(-c3cn(C)nc3-c3ccccc3)c2cc1N1CCOCC1 [Example 160, 4-(7-methoxy-4-(1-methyl-3-phenyl-1H-pyrazol-4-yl)quinazolin-6-yl)morpholine] | 20 | 2.9 | 8.3 |
| CCOc1cc2ncnc(-c3cn(CC(F)F)nc3-c3ccccc3)c2cc1CO [Example 123, (4-(1-(2,2-difluoroethyl)-3-phenyl-1H-pyrazol-4-yl)-7-ethoxyquinazolin-6-yl)methanol] | 1.6 | 1 | 3 |
| COc1cc2ncnc(-c3cn(C)nc3-c3ccccc3)c2cc1OC(=O)N1C[C@H](C)OC[C@@H]1C (racemic) [Example 92, cis-rac-7-methoxy-4-(1-methyl-3-phenyl-1H-pyrazol-4-yl)quinazolin-6-yl (2R,5S)-2,5-dimethylmorpholine-4-carboxylate or trans-rac-7-methoxy-4-(1-methyl-3-phenyl-1H-pyrazol-4-yl)quinazolin-6-yl (2S,5S)-2,5-dimethylmorpholine-4-carboxylate] | 9.3 | 3.4 | 13.4 |
| COc1cc2ncnc(-c3cn(C)nc3-c3ccccc3)c2cc1OC1CCOC1 (stereo not drawn) [Example 11, 7-methoxy-4-(1-methyl-3-phenyl-1H-pyrazol-4-yl)-6-((tetrahydrofuran-3-yl)oxy)quinazoline] | 2.9 | 2.4 | 5.1 |
| COc1cc2ncnc(-c3cn(C)nc3-c3ccccc3)c2nc1O[C@H](C)c1ncsc1C (single isomer, unassigned) [Example 53, (R)-4-(1-((7-methoxy-4-(1-methyl-3-phenyl-1H-pyrazol-4-yl)pyrido[3,2-d]pyrimidin-6-yl)oxy)ethyl)-5-methylthiazole or (S)-4-(1-((7-methoxy-4-(1-methyl-3-phenyl-1H-pyrazol-4-yl)pyrido[3,2-d]pyrimidin-6-yl)oxy)ethyl)-5-methylthiazole] | 12.8 | 1.1 | 2.7 |
| CCn1cc([C@H](C)Oc2nc3c(-c4cn(C)nc4-c4ccccc4)ncnc3cc2OC)nn1 [Example 36, (S)-6-(1-(1-ethyl-1H-1,2,3-triazol-4-yl)ethoxy)-7-methoxy-4-(1-methyl-3-phenyl-1H-pyrazol-4-yl)pyrido[3,2-d]pyrimidine] | 9.7 | 3.2 | 14 |
| COc1cc2ncnc(-c3cn(C)nc3-c3ccccc3)c2cc1OC(=O)N1CCN2CCCC2C1 (stereo in doubt) [Example 85, 7-methoxy-4-(1-methyl-3-phenyl-1H-pyrazol-4-yl)quinazolin-6-yl (R)-hexahydropyrrolo[1,2-a]pyrazine-2(1H)-carboxylate] | 3.9 | 2.7 | 13.3 |
| COc1cc2ncnc(-c3cn(CC(F)F)nc3-c3ccccc3)c2cc1C(C)(C)O [Example 122, 2-(4-(1-(2,2-difluoroethyl)-3-phenyl-1H-pyrazol-4-yl)-7-methoxyquinazolin-6-yl) propan-2-ol] | 1.9 | 1.3 | 2.8 |

More lines, now with the values ahead:

| IC50 (EGFR L858R) [nM] | IC50 (EGFR (d746-750)) [nM] | IC50 [1] [nM] | SMILES |
| --- | --- | --- | --- |
| 25.8 | 3.1 | 9.7 | CN(C)CCOc1cc2ncnc(-c3cn(C)nc3-c3ccccc3)c2nc1NC(=O)C12COCC1C2 (stereo not drawn) [Example 435, N-(7-(2-(dimethylamino)ethoxy)-4-(1-methyl-3-phenyl-1H-pyrazol-4-yl)pyrido[3,2-d]pyrimidin-6-yl)-3-oxabicyclo[3.1.0]hexane-1-carboxamide] |
| 2.1 | 1.3 | 1.4 | COc1cc2ncnc(-c3cn(C)nc3-c3ccccc3)c2cc1NC(=O)c1ccnn1C(F)(F)F [Example 204, N-(7-methoxy-4-(1-methyl-3-phenyl-1H-pyrazol-4-yl)quinazolin-6-yl)-1-(trifluoromethyl)-1H-pyrazole-5-carboxamide] |
| 1.8 | 1.1 | 1 | COc1cc2ncnc(-c3cn(CC(F)F)nc3-c3ccccc3)c2nc1NC(=O)c1ccc(C2CC2)nc1 [Example 358, 6-cyclopropyl-N-(4-(1-(2,2-difluoroethyl)-3-phenyl-1H-pyrazol-4-yl)-7-methoxypyrido[3,2-d]pyrimidin-6-yl)nicotinamide] |
| 6.9 | 3.2 | 8.8 | COc1cc2ncnc(-c3cn(C)nc3-c3ccccc3)c2nc1NC(=O)c1ccc(F)cc1 [Example 312, 4-fluoro-N-(7-methoxy-4-(1-methyl-3-phenyl-1H-pyrazol-4-yl)pyrido[3,2-d]pyrimidin-6-yl)benzamide] |
| 1.1 | 0.8 | 1.5 | COc1cc2ncnc(-c3cn(C)nc3-c3ccccc3)c2cc1NC(=O)c1ccncc1Cl [Example 190, 3-chloro-N-(7-methoxy-4-(1-methyl-3-phenyl-1H-pyrazol-4-yl)quinazolin-6-yl)isonicotinamide] |
| 11 | 2.9 | 8.8 | Cc1ncsc1C(=O)Nc1cc2c(-c3cn(C)nc3-c3ccccc3)ncnc2cc1OCCN(C)C [Example 303, N-(7-(2-(dimethylamino)ethoxy)-4-(1-methyl-3-phenyl-1H-pyrazol-4-yl)quinazolin-6-yl)-4-methylthiazole-5-carboxamide] |
| 2.2 | 1.6 | 0.7 | COc1cc2ncnc(-c3cn(C)nc3-c3ccccc3)c2cc1NC(=O)[C@H]1C[C@H]1C [Example 282, (1S,2R)—N-(7-methoxy-4-(1-methyl-3-phenyl-1H-pyrazol-4-yl)quinazolin-6-yl)-2-methylcyclopropane-1-carboxamide] |
| 416 | 126 | 981 | Cn1cc(-c2ncnc3cc(C(F)(F)F)c(NC(=O)C45COCC4C5)nc23)c(-c2ccccc2)n1 (stereo not drawn) [Example 488, N-(4-(1-methyl-3-phenyl-1H-pyrazol-4-yl)-7-(trifluoromethyl)pyrido[3,2-d]pyrimidin-6-yl)-3-oxabicyclo[3.1.0]hexane-1-carboxamide] |
| 92.4 | 31.9 | 258 | [2H]C([2H])([2H])n1ncc(-c2ncnc3cc(OC)c(NC(=O)C45CC(N(C)C)(C4)C5)nc23)c1-c1ccccc1 [Example 493] |
| 2.1 | 0.8 | 2.5 | COc1cc2ncnc(-c3cn(C)nc3-c3ccccc3F)c2cc1NC(=O)[C@@]12C[C@@H]1CN(C)C2 (single isomer, unassigned) [Example 254, (1S,5S)—N-(4-(3-(2-fluorophenyl)-1-methyl-1H-pyrazol-4-yl)-7-methoxyquinazolin-6-yl)-3-methyl-3-azabicyclo[3.1.0]hexane-1-carboxamide or (1R,5R)—N-(4-(3-(2-fluorophenyl)-1-methyl-1H-pyrazol-4-yl)-7-methoxyquinazolin-6-yl)-3-methyl-3-azabicyclo[3.1.0]hexane-1-carboxamide] |
| 5 | 1.7 | 3.5 | CN(C)CCOc1cc2ncnc(-c3cn(C)nc3-c3ccccc3)c2cc1NC(=O)c1ccccc1F [Example 300, N-(7-(2-(dimethylamino)ethoxy)-4-(1-methyl-3-phenyl-1H-pyrazol-4-yl)quinazolin-6-yl)-2-fluorobenzamide] |
| 1.5 | 1 | 4.9 | COc1cc2ncnc(-c3sc(C)nc3-c3ccccc3)c2cc1NC(=O)C1CC1 [Example 266, N-(7-methoxy-4-(2-methyl-4-phenylthiazol-5-yl)quinazolin-6-yl)cyclopropanecarboxamide] |
| 1.9 | 1.1 | 1.7 | CCOc1cc2ncnc(-c3cn(C)nc3-c3ccccc3)c2cc1N1CC2CC(C1)O2 [Example 167, 3-(7-ethoxy-4-(1-methyl-3-phenyl-1H-pyrazol-4-yl)quinazolin-6-yl)-6-oxa-3-azabicyclo[3.1.1]heptane] |
| 1.5 | 0.9 | 2.3 | COc1cc2ncnc(-c3cn(C)nc3-c3ccccc3F)c2cc1NC(=O)c1ccc(C2CC2)nc1 [Example 230, 6-cyclopropyl-N-(4-(3-(2-fluorophenyl)-1-methyl-1H-pyrazol-4-yl)-7-methoxyquinazolin-6-yl) nicotinamide] |
